Data set [1] addresses T1, Peroxisome proliferator-activated receptor delta (Homo sapiens) (UniProt Q03181).
T1 sequence (whole entry): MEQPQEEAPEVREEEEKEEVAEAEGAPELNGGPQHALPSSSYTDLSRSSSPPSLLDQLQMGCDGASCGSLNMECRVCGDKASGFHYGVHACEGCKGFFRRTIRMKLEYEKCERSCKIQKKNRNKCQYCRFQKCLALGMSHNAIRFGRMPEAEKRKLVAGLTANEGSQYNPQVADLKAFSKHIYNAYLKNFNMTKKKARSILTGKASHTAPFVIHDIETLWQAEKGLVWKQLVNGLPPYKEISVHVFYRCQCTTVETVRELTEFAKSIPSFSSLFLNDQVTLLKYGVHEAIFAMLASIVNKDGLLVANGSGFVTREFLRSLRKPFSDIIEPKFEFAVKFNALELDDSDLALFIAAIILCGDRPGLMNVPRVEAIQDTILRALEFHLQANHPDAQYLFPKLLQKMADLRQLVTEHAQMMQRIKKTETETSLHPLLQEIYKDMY
The data set can be described thus: Agonist activity at GAL4 DNA binding domain fused PPARdelta (unknown origin) at 0.25 to 25 uM by FRET-based assay.

Data set [2] has as its target T2, Progesterone receptor (Homo sapiens) (UniProt P06401).
T2 sequence (whole entry): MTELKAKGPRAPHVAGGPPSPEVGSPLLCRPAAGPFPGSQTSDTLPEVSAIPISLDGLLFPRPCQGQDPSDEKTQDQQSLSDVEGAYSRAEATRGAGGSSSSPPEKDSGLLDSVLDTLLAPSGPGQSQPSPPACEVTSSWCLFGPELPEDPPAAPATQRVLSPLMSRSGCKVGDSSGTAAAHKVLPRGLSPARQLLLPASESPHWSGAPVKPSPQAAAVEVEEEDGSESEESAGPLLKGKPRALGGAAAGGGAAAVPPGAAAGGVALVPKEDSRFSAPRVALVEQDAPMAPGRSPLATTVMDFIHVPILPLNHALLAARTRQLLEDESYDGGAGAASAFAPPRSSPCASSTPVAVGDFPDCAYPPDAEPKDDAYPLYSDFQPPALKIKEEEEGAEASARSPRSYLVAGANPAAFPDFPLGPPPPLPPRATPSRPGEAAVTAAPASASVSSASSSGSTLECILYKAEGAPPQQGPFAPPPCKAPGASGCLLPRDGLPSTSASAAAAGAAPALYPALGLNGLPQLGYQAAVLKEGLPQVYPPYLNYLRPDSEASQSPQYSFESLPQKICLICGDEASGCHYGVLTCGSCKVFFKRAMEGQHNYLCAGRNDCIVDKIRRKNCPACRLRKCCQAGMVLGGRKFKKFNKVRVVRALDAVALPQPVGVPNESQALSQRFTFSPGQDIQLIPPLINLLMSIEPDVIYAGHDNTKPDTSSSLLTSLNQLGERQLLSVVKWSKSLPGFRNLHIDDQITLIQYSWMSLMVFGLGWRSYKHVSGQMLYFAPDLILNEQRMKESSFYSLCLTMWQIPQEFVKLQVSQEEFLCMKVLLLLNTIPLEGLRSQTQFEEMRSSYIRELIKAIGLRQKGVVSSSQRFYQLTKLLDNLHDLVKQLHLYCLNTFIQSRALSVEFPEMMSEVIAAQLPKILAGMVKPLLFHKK
The data set can be described thus: Agonist activity at GAL4 DNA binding domain fused progesterone receptor ligand binding domain (unknown origin) at 0.25 to 25 uM by FRET-based assay.

The target in data set [3] is T3, Estrogen receptor (Homo sapiens, UniProt P03372).
T3 sequence (P03372 whole entry): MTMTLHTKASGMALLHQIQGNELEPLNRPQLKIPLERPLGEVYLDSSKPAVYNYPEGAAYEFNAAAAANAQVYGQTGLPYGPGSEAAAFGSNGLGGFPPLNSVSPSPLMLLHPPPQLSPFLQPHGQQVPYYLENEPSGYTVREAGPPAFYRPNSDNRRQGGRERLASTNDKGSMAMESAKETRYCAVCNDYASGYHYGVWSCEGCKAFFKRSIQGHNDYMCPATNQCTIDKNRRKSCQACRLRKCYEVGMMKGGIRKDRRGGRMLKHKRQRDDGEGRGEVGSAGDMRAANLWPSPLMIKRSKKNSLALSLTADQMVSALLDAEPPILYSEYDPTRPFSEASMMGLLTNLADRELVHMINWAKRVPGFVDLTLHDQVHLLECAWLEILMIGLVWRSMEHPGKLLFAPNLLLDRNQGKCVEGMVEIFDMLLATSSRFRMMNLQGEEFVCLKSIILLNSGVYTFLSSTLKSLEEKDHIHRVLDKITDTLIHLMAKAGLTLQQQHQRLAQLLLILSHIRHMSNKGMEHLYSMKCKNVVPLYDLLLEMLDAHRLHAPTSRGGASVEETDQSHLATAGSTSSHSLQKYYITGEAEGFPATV

Data set [4] addresses Cytochrome P450 2D6 (Homo sapiens, UniProt P10635). In words: Inhibition of human recombinant CYP2D6 up to 100 uM preincubated for 10 mins followed by NADPH addition and measured after 10 to 30 mins by P450-Glo luminescence assay. The settings on record: recombinant enzyme. The format is ADME.
The target of data set [5] is T4, Vitamin D3 receptor (Homo sapiens) (UniProt P11473).
T4 sequence (whole entry): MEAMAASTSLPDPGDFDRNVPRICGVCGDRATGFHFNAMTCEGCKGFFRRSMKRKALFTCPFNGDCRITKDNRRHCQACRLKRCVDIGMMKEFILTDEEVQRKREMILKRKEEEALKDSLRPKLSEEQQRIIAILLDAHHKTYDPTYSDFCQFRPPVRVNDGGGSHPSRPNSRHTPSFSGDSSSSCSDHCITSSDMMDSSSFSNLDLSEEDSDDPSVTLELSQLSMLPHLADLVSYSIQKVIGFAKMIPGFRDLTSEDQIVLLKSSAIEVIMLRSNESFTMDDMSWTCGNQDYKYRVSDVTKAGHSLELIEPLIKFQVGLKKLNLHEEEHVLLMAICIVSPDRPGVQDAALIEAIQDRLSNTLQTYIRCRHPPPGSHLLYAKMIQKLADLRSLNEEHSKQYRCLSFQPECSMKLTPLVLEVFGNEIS
The data set can be described thus: Agonist activity at GAL4 DNA binding domain fused VDR ligand binding domain (unknown origin) at 0.25 to 25 uM by FRET-based assay.

Data set [6] relates to Mus musculus. In words: Memory enhancement effect in C57BL/6 mouse assessed as time spent with novel object at 100 pg administered as dorsal hippocampal infusion by novel object recognition test. The format is functional.
Data set [7] relates to Mus musculus. The data set can be described thus: Memory enhancement effect in C57BL/6 mouse assessed as time spent with novel object at 0.5 mg/kg, ip by novel object recognition test. The format is functional.
For data set [8], the target named is T3, Estrogen receptor. This is another data set of the same source.

By IC50 is commonly meant the concentration that inhibits the measured activity by half. Broadly, the EC50 is the midpoint of the concentration-response curve.

The source made the active and inactive calls. The calls are words filed in the database; no cut-off is given here.

Cytochrome P450 2D6, sequence (P10635 whole entry): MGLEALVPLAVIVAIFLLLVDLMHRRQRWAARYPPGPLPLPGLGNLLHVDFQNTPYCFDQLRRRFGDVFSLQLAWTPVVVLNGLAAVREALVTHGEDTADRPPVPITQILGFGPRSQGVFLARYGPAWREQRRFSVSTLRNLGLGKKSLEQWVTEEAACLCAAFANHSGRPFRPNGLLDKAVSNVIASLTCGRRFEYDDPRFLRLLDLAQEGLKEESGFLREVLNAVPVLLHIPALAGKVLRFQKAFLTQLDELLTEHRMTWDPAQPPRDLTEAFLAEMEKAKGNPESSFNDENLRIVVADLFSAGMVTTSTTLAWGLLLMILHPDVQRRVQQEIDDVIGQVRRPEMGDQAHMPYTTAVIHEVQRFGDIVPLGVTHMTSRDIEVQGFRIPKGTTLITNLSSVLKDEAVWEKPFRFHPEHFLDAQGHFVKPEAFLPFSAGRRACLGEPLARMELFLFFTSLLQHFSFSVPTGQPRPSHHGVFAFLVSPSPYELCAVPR

`OC[C@H]1CC[C@H](c2ccc(O)cc2)CC1`: the result in data set [1], in data set [2] and in data set [5] was inactive. In data set [3], this compound showed an IC50 of 2940 nM. Besides, the “inhibition (INH)” value in data set [4] is on record as “Not Active”. Further, the Time is 3.16 s in data set [6] and 4.17 s in data set [7]. The compound also registered a concentration for a half-maximal effect (EC50) in data set [8] of 289 nM.

These data come from ChEMBL document CHEMBL4371004, “A-C Estrogens as Potent and Selective Estrogen Receptor-Beta Agonists (SERBAs) to Enhance Memory Consolidation under Low-Estrogen Conditions” (J Med Chem, 2018).
